In brackets after ≈: the same amount, converted by molar mass. Activity calls are given as the source filed them. The rule behind the calls is not given here.
Experiments:
Staphylococcus aureus [1] = assay: Antibacterial activity against vacomycin-resistant Staphylococcus aureus VRS 1 assessed as reduction in bacterial growth measured after 18 to 24 hrs by broth microdilution method; format: functional; settings: time 18-24 hrs
Staphylococcus aureus [2] = assay: Antibacterial activity against vacomycin-resistant Staphylococcus aureus VRS 4 assessed as reduction in bacterial growth measured after 18 to 24 hrs by broth microdilution method; format: functional; settings: time 18-24 hrs
Staphylococcus aureus [3] = assay: Antibacterial activity against vacomycin-resistant Staphylococcus aureus VRS 12 assessed as reduction in bacterial growth measured after 18 to 24 hrs by broth microdilution method; format: functional; settings: time 18-24 hrs
Staphylococcus aureus [4] = assay: Bactericidal activity against Staphylococcus aureus ATCC 29213 at 4 to 8 time MIC measured after 8 hrs by time-kill assay; format: functional, organism-based
Staphylococcus aureus [5] = assay: Drug resistance, ratio of MIC for Staphylococcus aureus ATCC 29213 after 20 passages exposure to MIC for Staphylococcus aureus ATCC 29213 during first exposure; format: functional
Enterococcus faecalis = assay: Antibacterial activity against Enterococcus faecalis ATCC 35550 assessed as reduction in bacterial growth measured after 18 to 24 hrs by broth microdilution method; format: functional; settings: time 18-24 hrs
Bacillus subtilis = assay: Antibacterial activity against Bacillus subtilis IITKSM1 assessed as reduction in bacterial growth measured after 18 to 24 hrs by broth microdilution method; format: functional; settings: time 18-24 hrs
Staphylococcus aureus [6] = assay: Antibacterial activity against Staphylococcus aureus ATCC 29213 assessed as reduction in bacterial growth measured after 18 to 24 hrs by broth microdilution method; format: functional; settings: time 18-24 hrs
Klebsiella pneumoniae = assay: Antibacterial activity against Klebsiella pneumoniae BAA 1705 assessed as reduction in bacterial growth measured after 18 to 24 hrs by broth microdilution method; format: functional; settings: time 18-24 hrs
Acinetobacter baumannii = assay: Antibacterial activity against Acinetobacter baumannii BAA 1605 assessed as reduction in bacterial growth measured after 18 to 24 hrs by broth microdilution method; format: functional; settings: time 18-24 hrs
Pseudomonas aeruginosa = assay: Antibacterial activity against Pseudomonas aeruginosa ATCC 27853 assessed as reduction in bacterial growth measured after 18 to 24 hrs by broth microdilution method; format: functional; settings: time 18-24 hrs
Escherichia coli = assay: Antibacterial activity against Escherichia coli ATCC 25922 assessed as reduction in bacterial growth measured after 18 to 24 hrs by broth microdilution method; format: functional; settings: time 18-24 hrs
[7] = Solubility of the compound in distilled water; format: physicochemical; settings: buffer
[8] = Solubility of the compound in DMSO/DMF; format: physicochemical
Staphylococcus aureus [9] = assay: Antibacterial activity against methicillin-sensitive Staphylococcus aureus ATCC 29213 assessed as reduction in bacterial growth measured after 18 to 24 hrs by broth microdilution method; format: functional; settings: time 18-24 hrs
Staphylococcus aureus [10] = assay: Antibacterial activity against methicillin-resistant Staphylococcus aureus NRS 100 assessed as reduction in bacterial growth measured after 18 to 24 hrs by broth microdilution method; format: functional; settings: time 18-24 hrs
Staphylococcus aureus [11] = assay: Antibacterial activity against methicillin-resistant Staphylococcus aureus NRS 119 assessed as reduction in bacterial growth measured after 18 to 24 hrs by broth microdilution method; format: functional; settings: time 18-24 hrs
Staphylococcus aureus [12] = assay: Antibacterial activity against methicillin-resistant Staphylococcus aureus NRS 129 assessed as reduction in bacterial growth measured after 18 to 24 hrs by broth microdilution method; format: functional; settings: time 18-24 hrs
Staphylococcus aureus [13] = assay: Antibacterial activity against methicillin-resistant Staphylococcus aureus NRS 186 assessed as reduction in bacterial growth measured after 18 to 24 hrs by broth microdilution method; format: functional; settings: time 18-24 hrs
Staphylococcus aureus [14] = assay: Antibacterial activity against methicillin-resistant Staphylococcus aureus NRS 191 assessed as reduction in bacterial growth measured after 18 to 24 hrs by broth microdilution method; format: functional; settings: time 18-24 hrs
Staphylococcus aureus [15] = assay: Antibacterial activity against methicillin-resistant Staphylococcus aureus NRS 192 assessed as reduction in bacterial growth measured after 18 to 24 hrs by broth microdilution method; format: functional; settings: time 18-24 hrs
Staphylococcus aureus [16] = assay: Antibacterial activity against methicillin-resistant Staphylococcus aureus NRS 193 assessed as reduction in bacterial growth measured after 18 to 24 hrs by broth microdilution method; format: functional; settings: time 18-24 hrs
Staphylococcus aureus [17] = assay: Antibacterial activity against methicillin-resistant Staphylococcus aureus NRS 194 assessed as reduction in bacterial growth measured after 18 to 24 hrs by broth microdilution method; format: functional; settings: time 18-24 hrs
Staphylococcus aureus [18] = assay: Antibacterial activity against methicillin-resistant Staphylococcus aureus NRS 198 assessed as reduction in bacterial growth measured after 18 to 24 hrs by broth microdilution method; format: functional; settings: time 18-24 hrs
[19] = Hemolytic activity in human Red blood cell at 32 ug/ml measured after 1 hrs by spectrophotometric analysis relative to control; format: toxicity, cell-based, Erythrocyte; settings: red blood cells, at 32 µg/mL, read-out: Activity
HEK293 [20] = assay: Cytotoxicity against HEK293 cells assessed as cell viability at 1 times MIC measured after 24 hrs by Calcein-AM/PI staining based fluorescence microscopy analysis; format: toxicity; settings: human, hek293, 24 h
HEK293 [21] = assay: Cytotoxicity against HEK293 cells assessed as cell viability measured after 72 hrs by MTT assay; format: toxicity, cell-based; settings: human, hek293, 72 h
Staphylococcus aureus [22] = assay: Inhibition of biofilm in Staphylococcus aureus ATCC 29213 at 1 times MIC measured after 12 hrs by crystal violet staining based analysis relative to control; format: functional
Staphylococcus aureus [23] = assay: Inhibition of biofilm in Staphylococcus aureus ATCC 29213 at 0.5 times MIC measured after 12 hrs by crystal violet staining based analysis relative to control; format: functional
Staphylococcus aureus [24] = assay: Inhibition of biofilm in Staphylococcus aureus ATCC 29213 at 2 times MIC measured after 12 hrs by crystal violet staining based analysis relative to control; format: functional
Staphylococcus aureus [25] = assay: Inhibition of biofilm in Staphylococcus aureus ATCC 29213 at 2 ug/ml measured after 12 hrs by crystal violet staining based analysis; format: functional, organism-based; settings: dose 2.0 µg/ml
Staphylococcus aureus [26] = assay: Antibacterial activity against Staphylococcus aureus ATCC 29213 measured after 20 passages; format: functional, organism-based
Cell membrane [27] = assay: Disruption of cell membrane in Staphylococcus aureus ATCC 29213 assessed as increase in red fluorescence at 5 to 10 times MIC measured after 4 hrs by DAPI and PI staining based fluorescence microscopic analysis
Cell membrane [28] = assay: Disruption of cell membrane in Staphylococcus aureus ATCC 29213 assessed as increase in PI uptake at 10 times MIC measured after 8 mins by fluorescence based microplate reader analysis
Staphylococcus aureus [29] = assay: Induction of morphological changes in Staphylococcus aureus ATCC 29213 assessed as cell shrinkage at 10 times MIC measured after 4 hrs by atomic force microscopy based analysis (reference value: 60.170 nanometer); format: functional
Staphylococcus aureus [30] = assay: Induction of morphological changes in Staphylococcus aureus ATCC 29213 assessed as cell shrinkage by measuring cells height at 10 times MIC measured after 4 hrs by atomic force microscopy based analysis (reference value: 170.8 nanometer); format: functional
Staphylococcus aureus [31] = assay: Induction of morphological changes in Staphylococcus aureus ATCC 29213 assessed as cell shrinkage by measuring cells diameter at 10 times MIC measured after 4 hrs by atomic force microscopy based analysis (reference value: 1.017 micrometer); format: functional
Staphylococcus aureus [32] = assay: Induction of morphological changes in Staphylococcus aureus ATCC 29213 assessed as cell deformation at 2 to 10 times MIC measured after 4 hrs by Scanning electron microscopy based analysis; format: functional, organism-based
Staphylococcus aureus [33] = assay: Induction of morphological changes in Staphylococcus aureus ATCC 29213 assessed as appearance of cell surface fold at 2 to 10 times MIC measured after 4 hrs by Scanning electron microscopy based analysis; format: functional, organism-based
Staphylococcus aureus [34] = assay: Induction of morphological changes in Staphylococcus aureus ATCC 29213 assessed as cell shrinkage at 2 to 10 times MIC measured after 4 hrs by Scanning electron microscopy based analysis; format: functional, organism-based
Staphylococcus aureus [35] = assay: Induction of morphological changes in Staphylococcus aureus ATCC 29213 assessed as accumulation of cellular debris at 2 to 10 times MIC measured after 4 hrs by Scanning electron microscopy based analysis; format: functional, organism-based
Staphylococcus aureus [36] = assay: Induction of morphological changes in Staphylococcus aureus ATCC 29213 assessed as leakage of subcellular components at 2 to 10 times MIC measured after 4 hrs by Scanning electron microscopy based analysis; format: functional, organism-based
Staphylococcus aureus [37] = assay: Synergistic antibacterial activity against Staphylococcus aureus ATCC 29213 assessed as fractional inhibitory concentration index in presence of vancomycin by checkerboard assay; format: functional
Staphylococcus aureus [38] = assay: Synergistic antibacterial activity against Staphylococcus aureus ATCC 29213 assessed as fractional inhibitory concentration index in presence of levofloxacin by checkerboard assay; format: functional
[39] = target: T1, UDP-N-acetylenolpyruvoylglucosamine reductase (Staphylococcus aureus, UniProt P61431); assay: Binding affinity to Staphylococcus aureus MurB assessed as inhibition constant
T1 sequence (P61431 whole entry): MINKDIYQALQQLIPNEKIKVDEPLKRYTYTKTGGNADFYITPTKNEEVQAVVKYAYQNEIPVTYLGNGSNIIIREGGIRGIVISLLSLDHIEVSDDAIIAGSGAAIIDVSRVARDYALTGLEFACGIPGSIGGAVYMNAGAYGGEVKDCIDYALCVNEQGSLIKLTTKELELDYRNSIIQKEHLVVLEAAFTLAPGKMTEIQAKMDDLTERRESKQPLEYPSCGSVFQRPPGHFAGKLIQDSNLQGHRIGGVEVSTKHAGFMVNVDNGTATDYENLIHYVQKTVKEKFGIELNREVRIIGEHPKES

[40] = Binding affinity to Staphylococcus aureus MurA assessed as inhibition constant
[41] = Binding affinity to Staphylococcus aureus MurZ assessed as inhibition constant

CN[C@H](CC(C)C)C(=O)N[C@H]1C(=O)N[C@@H](CC(N)=O)C(=O)N[C@H]2C(=O)N[C@H]3C(=O)N[C@H](C(=O)N[C@H](C(=O)O)c4cc(O)cc(O)c4-c4cc3ccc4O)[C@H](O)c3ccc(c(Cl)c3)Oc3cc2cc(c3O[C@@H]2O[C@H](CO)[C@@H](O)[C@H](O)[C@H]2O[C@H]2C[C@](C)(N)[C@H](O)[C@H](C)O2)Oc2ccc(cc2Cl)[C@H]1O [VANCOMYCIN]
MIC (Staphylococcus aureus [1]): > 64 mg/L
MIC (Staphylococcus aureus [2]): > 64 mg/L
MIC (Staphylococcus aureus [3]): > 64 mg/L
Activity (Staphylococcus aureus [4]): Active

CCn1cc(C(=O)O)c(=O)c2cc(F)c(N3CCNCC3)cc21 [NORFLOXACIN]
Ratio (Staphylococcus aureus [5]): 64

CC(C)(C)c1cc(C(c2ccccc2)c2ccccc2)c(NC(=O)c2cccc(C(=O)O)c2)c(C(c2ccccc2)c2ccccc2)c1
MIC (Enterococcus faecalis): 1 mg/L (≈ 0.00159 mM)
MIC (Bacillus subtilis): 1 mg/L (≈ 0.00159 mM)
MIC (Staphylococcus aureus [6]): 2 mg/L (≈ 0.00318 mM)
MIC (Klebsiella pneumoniae): > 64 mg/L
MIC (Acinetobacter baumannii): > 64 mg/L
MIC (Pseudomonas aeruginosa): > 64 mg/L
MIC (Escherichia coli): > 64 mg/L
solubility [7]: Insoluble
solubility [8]: 660 mg/mL (≈ 1050 mM)
MIC (Staphylococcus aureus [9]): 4 mg/L (≈ 0.00635 mM)
MIC (Staphylococcus aureus [10]): 4 mg/L (≈ 0.00635 mM)
MIC (Staphylococcus aureus [11]): 4 mg/L (≈ 0.00635 mM)
MIC (Staphylococcus aureus [12]): 4 mg/L (≈ 0.00635 mM)
MIC (Staphylococcus aureus [13]): 4 mg/L (≈ 0.00635 mM)
MIC (Staphylococcus aureus [14]): 4 mg/L (≈ 0.00635 mM)
MIC (Staphylococcus aureus [15]): 4 mg/L (≈ 0.00635 mM)
MIC (Staphylococcus aureus [16]): 4 mg/L (≈ 0.00635 mM)
MIC (Staphylococcus aureus [17]): 4 mg/L (≈ 0.00635 mM)
MIC (Staphylococcus aureus [18]): 4 mg/L (≈ 0.00635 mM)
MIC (Staphylococcus aureus [1]): 4 mg/L (≈ 0.00635 mM)
MIC (Staphylococcus aureus [2]): 4 mg/L (≈ 0.00635 mM)
MIC (Staphylococcus aureus [3]): 4 mg/L (≈ 0.00635 mM)
hemolysis at 1 h, 32 ug/ml [19]: ~25%
Activity (HEK293 [20]): Toxic
Activity (HEK293 [21]): Toxic
inhibition (INH) (Staphylococcus aureus [22]): 95%
inhibition (INH) (Staphylococcus aureus [23]): >50%
inhibition (INH) (Staphylococcus aureus [24]): 95%
inhibition (Staphylococcus aureus [25]): Active
Activity (Staphylococcus aureus [26]): Active
Activity (Cell membrane [27]): Active
Activity (Cell membrane [28]): Active
Activity (Staphylococcus aureus [29]): 53.464 nm
Activity (Staphylococcus aureus [30]): 105.1 nm
Activity (Staphylococcus aureus [31]): 0.68 um
Activity (Staphylococcus aureus [32]): Active
Activity (Staphylococcus aureus [33]): Active
Activity (Staphylococcus aureus [34]): Active
Activity (Staphylococcus aureus [35]): Active
Activity (Staphylococcus aureus [36]): Active
fractional inhibitory concentration index (FICI) (Staphylococcus aureus [37]): 0.258
fractional inhibitory concentration index (FICI) (Staphylococcus aureus [38]): 0.75
Ki [39]: 2.52 µM
Ki [40]: 117 µM
Ki [41]: 133 µM

Source: ChEMBL document CHEMBL6177993, “De Novo 3-(Phenylcarbamoyl) Benzoate Analogues: Efficacy against Multidrug-Resistant S. aureus and Elucidation of the Biodistribution Profile” (J Med Chem, 2025)
